Source: patent publication US20110105397A1, “METHOD FOR TREATING HEART FAILURE WITH STRESSCOPIN-LIKE PEPTIDES” (priority 2009, published 2011)
Several values for one entry are separate records, joined by “and”; a condition that tells them apart may be missing. Identical values can stand only once.

Key:
CRHR1 [1] = target: T1, CRHR1 (Homo sapiens, UniProt P34998); experiment: CRHR1 radioligand binding, [125I]-(Tyr0)-sauvagine; design: host or cells: cell membranes
T1 sequence (P34998 24-415): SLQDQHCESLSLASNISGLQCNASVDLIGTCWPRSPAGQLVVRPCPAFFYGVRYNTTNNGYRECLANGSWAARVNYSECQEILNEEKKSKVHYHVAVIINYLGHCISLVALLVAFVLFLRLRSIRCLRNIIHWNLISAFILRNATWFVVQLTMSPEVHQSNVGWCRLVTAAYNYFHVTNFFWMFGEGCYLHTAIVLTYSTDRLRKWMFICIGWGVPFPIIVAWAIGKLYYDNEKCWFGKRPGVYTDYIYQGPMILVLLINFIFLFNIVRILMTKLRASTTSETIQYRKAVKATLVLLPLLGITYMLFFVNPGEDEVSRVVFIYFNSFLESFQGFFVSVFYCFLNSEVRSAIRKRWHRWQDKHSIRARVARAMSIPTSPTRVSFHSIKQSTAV
Excerpt: The solution was then homogenized with a Polytron tissue grinder at a setting of 10 and 7×3 s (Brinkmann Instruments, Westbury, N.Y.). […] The bound radioactivity was separated by filtration using a Multiscreen Resist manifold (Millipore Corp., Billerica, Mass., U.S.A). The filters were washed three times with ice-cold PBS at pH 7.5 and radioactivity retained on the filters was quantified by its liquid scintillation measured by a TopCount counter (Packard BioScience, Boston, Mass., U.S.A). All experiments were performed in triplicate.

CRHR1 [2] = target: T1, CRHR1; experiment: cAMP assay, h-CRHR1 transfected SK-N-MC cells; format: cell-based; design: expressed in transfected cells; settings: Table 11; for EC50: h-CRHR1 transfected SK-N-MC cells, 1 hr at 37° Celsius, read-out: pA50 (Experimental) (converted)
Method: Human CRHR1 (accession number X72304) or CRHR2 (accession number U34587) were cloned into pcDNA3.1/Zeo expression vector and stably transfected into SK—N-MC cells by electroporation. Cells were maintained in MEM w/Earl's Salt with 10% FBS, 50 I.U. penicillin, 50 μg/ml streptomycin, 2 mM L-glutamine, 1 mM sodium pyruvate and 0.1 mM non-essential amino acids, 600 μg/ml G418. Cells were grown at 37° C. in 5% CO2
Cells were plated in 96-well tissue culture dishes (Biocoat from BD Biosciences) overnight at 50,000 cell/well. Cells were washed with PBS then resuspended in DMEM F-12 without phenol red, containing 10 μM isobutylmethylxanthine (IBMX). Cells were incubated with the peptides at concentrations ranging from 1 pM to 10 μM for 60 min at 37° Celsius. […] Forskolin (10 μM), a direct stimulant of adenylate cyclase, was used as positive control. The assays were stopped by the addition of 0.5 M HCl and mixing by orbital rotation for 2 h at 4° Celsius.
Transfected SK—N-MC cells were plated in 96-well Biocoat tissue culture dishes (BD Biosciences, San Jose, Calif., U.S.A) overnight at 50,000 cell/well. Cells were first washed with PBS and then suspended with DMEM/F-12 without phenol red, containing […]. Suspended cells were transferred into a 96-well flash plate coated with scintillant fluid. Cells were incubated with peptides ranging from 1 pM to 1 μM, for 60 min, at 37° Celsius. Forskolin at 10 μM was used as positive control. After ligand stimulation, cells were lysed by the addition of 0.5M HCl and mixed by orbital rotation for 2 h at 4° Celsius in order to release intracellular cAMP into the media.
Media containing released intracellular cAMP was transferred to a 96-well flash plate coated with scintillant fluid containing an anti-cAMP antibody. […] To generate a standard curve, cAMP ranging from 2.5 to 250 pmoles/ml was included in the experiment.
Individual agonist concentration-response curve data were fitted to the Hill equation, see formula below, using GraphPad Prism (Graphpad Software, La Jolla, Calif., U.S.A.), to provide estimates of agonist concentration needed to generate one-half maximal response (A50), and the maximal asymptote (α) and Hill slope (nH) parameters. In this equation, [A] is the agonist concentration and E is the measured effect:
For display purposes the mean fitted parameter estimates were used to generate a single E/[A] curve shown superimposed on the mean experimental data. Potency estimates for agonists, pA50, are expressed as the negative logarithm of the midpoint of each curve and listed with their standard error of measurement (SEM).
Human and rat peptides (see Table 10) were used on the stimulation of h-CRHR1 or h-CRHR2 transfected SK—N-MC cells in the cAMP flash plate assay. Peptides were incubated for 1 hr at 37° Celsius. Curves were calculated using non-linear regression sigmoidal concentration-response analysis calculation in GraphPad Prism.

h-CRHR2b = target: T2, h-CRHR2b (Homo sapiens, UniProt Q13324); settings: h-CRHR2b transfected HEK-293 cells, approximated values from concentration response curves (Hsu et al., 2001); cited from earlier work
T2 sequence (Q13324 1-438 isoform Q13324-2): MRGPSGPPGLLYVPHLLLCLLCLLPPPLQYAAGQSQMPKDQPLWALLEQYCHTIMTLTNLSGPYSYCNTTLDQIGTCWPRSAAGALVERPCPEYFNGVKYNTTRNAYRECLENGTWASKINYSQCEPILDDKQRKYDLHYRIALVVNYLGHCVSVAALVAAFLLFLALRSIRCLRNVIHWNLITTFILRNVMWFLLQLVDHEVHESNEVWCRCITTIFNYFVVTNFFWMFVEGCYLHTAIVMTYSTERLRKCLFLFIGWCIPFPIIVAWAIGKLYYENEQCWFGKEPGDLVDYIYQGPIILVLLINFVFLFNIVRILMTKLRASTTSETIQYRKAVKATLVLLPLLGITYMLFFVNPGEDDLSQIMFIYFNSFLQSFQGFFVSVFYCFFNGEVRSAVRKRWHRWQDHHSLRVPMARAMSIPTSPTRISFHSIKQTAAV

Compound | nH (CRHR1 [1]) | nH (Hill slope) (CRHR1 [2]; h-CRHR1) | αmax (maximal asymptote) (CRHR1 [2]; h-CRHR1) | Published pA50 (h-CRHR2b) | nH (Hill slope) (CRHR1 [2]; h-CRHR1, listed as h-SRP) | EC50 (CRHR1 [2]) | Ki (CRHR1 [1]) [nM]
CC[C@H](C)[C@H](NC(=O)[C@H](CO)NC(=O)[C@H](CC(C)C)NC(=O)[C@@H]1CCCN1C(=O)[C@@H]1CCCN1C(=O)[C@H](CC(=O)O)NC(=O)[C@@H](N)CC(=O)O)C(=O)N[C@@H](CC(=O)O)C(=O)N[C@@H](CC(C)C)C(=O)N[C@H](C(=O)N[C@@H](Cc1ccccc1)C(=O)N[C@@H](Cc1c[nH]cn1)C(=O)N[C@@H](CC(C)C)C(=O)N[C@@H](CC(C)C)C(=O)N[C@@H](CCCNC(=N)N)C(=O)N[C@H](C(=O)N[C@@H](CC(C)C)C(=O)N[C@@H](CC(C)C)C(=O)N[C@@H](CCC(=O)O)C(=O)N[C@@H](CC(C)C)C(=O)N[C@@H](C)C(=O)N[C@@H](CCCNC(=N)N)C(=O)N[C@H](C(=O)N[C@@H](CCC(N)=O)C(=O)N[C@@H](CO)C(=O)N[C@@H](CCC(N)=O)C(=O)N[C@@H](CCCNC(=N)N)C(=O)N[C@@H](CCC(=O)O)C(=O)N[C@@H](CCCNC(=N)N)C(=O)N[C@@H](C)C(=O)N[C@@H](CCC(=O)O)C(=O)N[C@@H](CCC(N)=O)C(=O)N[C@@H](CC(N)=O)C(=O)N[C@@H](CCCNC(=N)N)C(=O)N[C@H](C(=O)N[C@H](C(=O)N[C@@H](Cc1ccccc1)C(=O)N[C@@H](CC(=O)O)C(=O)N[C@@H](CO)C(=O)N[C@H](C(N)=O)C(C)C)[C@@H](C)CC)[C@@H](C)CC)[C@@H](C)O)[C@@H](C)O)[C@@H](C)O [SEQ ID NO: 114, DDPPLSIDLTFHLLRTLLELARTQSQRERAEQNRIIFDSV-NH2] | 0.91 ± 0.27 | 1.15 | 99.61 |  |  |  | 
H-HPGSRIVLSLDVPIGLLQILLEQARARAAREQATTNARILARV-NH2 [SEQ ID NO: 117, HPGSRIVLSLDVPIGLLQILLEQARARAAREQATTNARILARV-NH2, reference compound] |  |  |  | ~9^4 | 1.61 and 1.33 and 1.26 | 457 nM and 631 nM and 525 nM | 
H-TKFTLSLDVPTNIMNLLFNIAKAKNLRAQAAANAHLMAQI-NH2 [SEQ ID NO: 1, TKFTLSLDVPTNIMNLLFNIAKAKNLRAQAAANAHLMAQI-NH2] | 1.16 ± 0.65 |  |  | ~9^4 |  | > 10000 nM | 25100
